The supplement of paper PMC11451515

Tested on: P12-Ichikawa
Experiment: cell viability relative to DMSO control; higher = less cytotoxic
Conditions: 48 h
Outline: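 Before seeding, each leukemia line was adapted for at least four passages in each medium. NOMO1 or SEM cells (500 cells/well) and P12-Ichikawa cells (1000 cells/well) went into 1536-well plates at 5 μl, then received library compounds in DMSO by pin dosing across 11 threefold concentrations, 47 μM to 0.79 nM. Readout was CellTiter-Glo One luminescence after 48 h at 37°C, and viability is given as a per-plate percentage of DMSO wells, with cell-free wells as background.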

[1] = HPLM + 10% dialyzed FBS, 0.000781 µM
[2] = HPLM + 10% dialyzed FBS, 0.00234 µM
[3] = HPLM + 10% dialyzed FBS, 0.00702 µM
[4] = HPLM + 10% dialyzed FBS, 0.0211 µM
[5] = HPLM + 10% dialyzed FBS, 0.0632 µM
[6] = HPLM + 10% dialyzed FBS, 0.19 µM
[7] = HPLM + 10% dialyzed FBS, 0.569 µM
[8] = HPLM + 10% dialyzed FBS, 1.71 µM
[9] = HPLM + 10% dialyzed FBS, 5.12 µM
[10] = HPLM + 10% dialyzed FBS, 15.4 µM
[11] = HPLM + 10% dialyzed FBS, 46.1 µM
[12] = RPMI 5 mM glucose + 10% FBS, 0.000781 µM
[13] = RPMI 5 mM glucose + 10% FBS, 0.00234 µM
[14] = RPMI 5 mM glucose + 10% FBS, 0.00702 µM
[15] = RPMI 5 mM glucose + 10% FBS, 0.0211 µM
[16] = RPMI 5 mM glucose + 10% FBS, 0.0632 µM
[17] = RPMI 5 mM glucose + 10% FBS, 0.19 µM
[18] = RPMI 5 mM glucose + 10% FBS, 0.569 µM
[19] = RPMI 5 mM glucose + 10% FBS, 1.71 µM
[20] = RPMI 5 mM glucose + 10% FBS, 5.12 µM
[21] = RPMI 5 mM glucose + 10% FBS, 15.4 µM
[22] = RPMI 5 mM glucose + 10% FBS, 46.1 µM
[23] = RPMI 5 mM glucose + 10% dialyzed FBS, 0.000781 µM
[24] = RPMI 5 mM glucose + 10% dialyzed FBS, 0.00234 µM
[25] = RPMI 5 mM glucose + 10% dialyzed FBS, 0.00702 µM
[26] = RPMI 5 mM glucose + 10% dialyzed FBS, 0.0211 µM
[27] = RPMI 5 mM glucose + 10% dialyzed FBS, 0.0632 µM
[28] = RPMI 5 mM glucose + 10% dialyzed FBS, 0.19 µM
[29] = RPMI 5 mM glucose + 10% dialyzed FBS, 0.569 µM
[30] = RPMI 5 mM glucose + 10% dialyzed FBS, 1.71 µM
[31] = RPMI 5 mM glucose + 10% dialyzed FBS, 5.12 µM
[32] = RPMI 5 mM glucose + 10% dialyzed FBS, 15.4 µM
[33] = RPMI 5 mM glucose + 10% dialyzed FBS, 46.1 µM

Compound	cell viability [1] [%]	cell viability [2] [%]	cell viability [3] [%]	cell viability [4] [%]	cell viability [5] [%]	cell viability [6] [%]	cell viability [7] [%]	cell viability [8] [%]	cell viability [9] [%]	cell viability [10] [%]	cell viability [11] [%]	cell viability [12] [%]	cell viability [13] [%]	cell viability [14] [%]	cell viability [15] [%]	cell viability [16] [%]	cell viability [17] [%]	cell viability [18] [%]	cell viability [19] [%]	cell viability [20] [%]	cell viability [21] [%]	cell viability [22] [%]	cell viability [23] [%]	cell viability [24] [%]	cell viability [25] [%]	cell viability [26] [%]	cell viability [27] [%]	cell viability [28] [%]	cell viability [29] [%]	cell viability [30] [%]	cell viability [31] [%]	cell viability [32] [%]	cell viability [33] [%]
Cc1cnc(C(=O)O)c[n+]1[O-]	115	120	112	115	112	116	114	119	111	107	105	122	128	124	126	120	127	125	127	116	119	100	121	130	123	111	117	123	120	108	115	109	102
CN1CCCC(CC1)N2\N=C(CC3=CC=C(Cl)C=C3)/C4=C(C=CC=C4)C2=O (centres undefined)	112	112	116	111	123	112	119	112	116	94.5	51.9	109	105	113	116	117	126	123	121	122	114	66.2	109	109	109	113	124	128	121	114	118	103	65.9
Cc1ccc([S+](=O)([O-])Nc2nc3ccccc3nc2Nc2ccc3nsnc3c2)cc1	105	110	111	110	115	116	109	112	106	36.3	13.3	93.4	114	104	116	103	113	110	103	77.5	28.5	12.4	92	107	112	116	112	104	101	112	92.1	74.1	30.4
CCCCCCCCCC(=O)N[C@@H](Cc1c[nH]c2ccccc12)C(=O)N[C@H](CC(N)=O)C(=O)N[C@@H](CC(=O)O)C(=O)N[C@@H]1C(=O)NCC(=O)N[C@@H](CCCN)C(=O)N[C@@H](CC(=O)O)C(=O)N[C@H](C)C(=O)N[C@@H](CC(=O)O)C(=O)NCC(=O)N[C@H](CO)C(=O)N[C@@H]([C@@H](C)CC(=O)O)C(=O)N[C@@H](CC(=O)c2ccccc2N)C(=O)O[C@@H]1C	116	122	112	123	121	122	126	123	122	124	129	106	111	113	121	131	127	126	129	125	125	4.51	106	111	110	113	133	116	117	126	121	131	115
CCCCC(C=O)NC(=O)C(CC(C)C)NC(=O)OCc1ccccc1 (centres undefined)	90.9	94.3	95.8	90.7	95.6	91.8	91.1	85.7	80.6	81	70.5	88	91.3	90.3	82.1	91.6	84.2	80.6	82.3	78.3	73.7	51.7	86.1	85.4	83	86.9	79.6	84.8	81.3	76.7	71.3	70.6	53.7
CC[C@]12\C=C/CN3CC[C@]4([C@@H](N(C)C5=CC(=C(C=C45)[C@]6(C[C@H]7C[C@H](CN(C7)CC8=C6[NH]C9=C8C=CC=C9)C(C)(F)F)C(=O)OC)OC)[C@](O)([C@@H]1OC(C)=O)C(=O)OC)[C@H]23	91.9	93.3	92	69.4	37	12	15.3	13.2	8.31	8.59	6.21	93.7	88.8	85.9	63.7	18.6	13.9	20.9	11.4	8.45	7.91	5.99	87.4	83	83.5	79.3	51.6	27.1	26.5	21.5	16.1	13	5.7
NC(=O)c1cccc2cn(-c3ccc([C@@H]4CCCNC4)cc3)nc12	90.3	94.4	103	104	110	105	108	106	101	86.9	33.8	83.9	90.4	96.8	100	103	105	101	102	103	75.5	24.5	94.1	98.6	103	105	108	113	103	106	101	88.4	55.5
CO/C1=C/C(C)=C\[C@@H](C)[C@@H](O)[C@@H](C)C/C(C)=C\C=C/[C@H](OC)[C@@H]([C@@H](C)[C@@H](O)[C@H](C)[C@@]2(O)C[C@@H](O)[C@H](C)[C@@H](C(C)C)O2)OC1=O	88.2	99.5	91.5	96.3	81.7	39.5	34.8	34.8	37.5	36.8	33	89	96.6	99.1	88.6	70.1	37.8	29.4	27.9	26.4	25.4	22.1	82.4	88.3	88.3	75.2	60.7	29.9	19.9	21.3	19.4	20	18
CC(C)c1ccc(Cn2ccc3c4c(N)nc(NC5CC5)nc4ccc32)cc1	110	116	119	84	116	100	83.4	65.6	32.7	26.7	2.54	118	123	127	84.8	126	133	133	114	52.2	51.5	2.24	118	124	122	86.4	139	126	132	85.5	36.5	32.1	2.44
CN1\C(=C(\O)C2=C(C=CC=C2)[S+]1([O-])=O)C(=O)NC3=CC=CC=N3	96.6	104	109	119	107	110	70.9	101	73.1	30.5	12.2	104	111	114	105	108	109	82.4	105	70.2	42	10.4	96.9	97.7	99.5	112	105	106	85.7	106	81.9	60.1	12.4
O=C1Nc2ccc(I)cc2/C1=C/c1cc(Br)c(O)c(Br)c1	103	100	103	105	109	105	108	102	102	98.2	86.4	99	110	106	103	101	104	102	104	101	96.7	79	106	111	110	107	103	111	108	101	100	93.4	84
COc1cc2c(Nc3ccc(Br)cc3F)ncnc2cc1OCC1CCN(C)CC1	87.8	93.5	91.3	91.1	91.9	88.4	87.8	82.8	89.9	73.9	86.9	82	81.8	79	87.7	87.3	81.7	85.2	84.8	80.6	80.9	83	88.7	86.1	84.6	83.3	88.3	88.8	84.5	84.4	76.9	68	79.8
COc1ccc2[nH]c([S+]([O-])Cc3ncc(C)c(OC)c3C)nc2c1 (centres undefined)	82.5	85.9	92.3	90	91.6	90	90.4	92	95.5	95.4	78.4	73.7	86.8	81.3	89.6	85.1	78	85.8	91.9	85.2	84.9	67.4	79.2	79.8	78.2	77	76.8	75.1	76.7	76.4	70.6	79.6	66.6
